Where “and” joins values, the source holds several entries; their conditions need not be identical. Identical values can stand only once.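 Briefly, cells in 96-well plates were exposed to five compound concentrations for 48 h, and endpoints were estimated by linear interpolation. The concentration for 50% growth inhibition is given as GI50. TGI denotes the concentration required for complete inhibition of growth.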
Key:
Experiment in all cases: DTP human tumour cell line panel, 48 h
[1] = system: SF-295 CNS
[2] = system: UACC-62 melanoma
[3] = system: MDA-MB-435
[4] = system: RPMI-8226 leukemia
[5] = system: MDA-MB-231 breast
[6] = system: HOP-92 NSCLC
[7] = system: HOP-62 NSCLC
[8] = system: NCI-H460 lung
[9] = system: TK-10 renal
[10] = system: OVCAR-5 ovarian

| SMILES | GI50 [1] | TGI [1] | GI50 [2] | TGI [2] | GI50 [3] | TGI [3] | GI50 [4] | TGI [4] | GI50 [5] | TGI [5] | GI50 [6] | TGI [6] | GI50 [7] | TGI [7] | GI50 [8] | TGI [8] | GI50 [9] | TGI [9] | GI50 [10] | TGI [10] [µM] |
| --- | --- | --- | --- | --- | --- | --- | --- | --- | --- | --- | --- | --- | --- | --- | --- | --- | --- | --- | --- | --- |
| CCN1C(=O)N(CC)C2C1NN=c1s/c(=C\c3ccc(OC)cc3)c(=O)n12 (centres undefined) | 0.0684 µM | > 45.9 µM | 0.0704 µM | > 100 µM | 0.031 µM | 0.105 µM | 0.353 µM | > 100 µM | 0.353 µM | > 39 µM | 3.25 µM | > 100 µM | 0.381 µM | > 59.4 µM | 0.242 µM | > 100 µM | > 33.5 µM | > 100 µM | 0.474 µM | > 100 |
| COc1cc(/C=C/c2ccccn2)cc(OC)c1OC |  | > 10 µM |  | > 10 µM |  | > 10 µM |  | > 10 µM |  | > 10 µM |  | > 10 µM |  | > 10 µM |  | > 10 µM |  | > 10 µM |  | > 10 |
| O=C1NC(=O)C(c2c[nH]c3ccccc23)=C1c1ccccc1 | > 25 µM | > 25 µM | > 25 µM | > 25 µM | > 25 µM | > 25 µM | > 25 µM | > 25 µM | > 25 µM | > 25 µM | > 25 µM | > 25 µM | > 25 µM | > 25 µM | > 25 µM | > 25 µM | > 25 µM | > 25 µM | > 25 µM | > 25 |
| COc1cc(NC(=O)c2ccccc2Nc2ccnc(C(F)(F)F)c2)cc(OC)c1OC | 41.9 µM | > 100 µM | 36.8 µM | > 100 µM | 63.3 µM | > 100 µM | 36.3 µM | > 100 µM | > 100 µM | > 100 µM | 23.2 µM | 74.1 µM | 88.9 µM | > 100 µM | 69.6 µM | > 100 µM | 72.3 µM | > 100 µM | > 100 µM | > 100 |
| Cc1cn2c(/C=C3/C(=O)Nc4ccc(Cl)cc43)c(C)nc2s1 | 0.871 µM | 2.65 µM | 0.0411 µM | 54.7 µM | 2.12 µM | 5.41 µM | 0.0137 µM | > 100 µM | 0.678 µM | 24.8 µM | 16 µM | 70.1 µM | 0.214 µM | 18.3 µM | 1.04 µM | > 59.4 µM | 2.42 µM | 17.5 µM | 1.91 µM | > 43.4 |
| CC12CC(=O)C3C(CCC4=CC(=O)CCC43C)C1CC=C2CC(=O)O (centres undefined) |  | > 100 µM |  | > 100 µM |  | > 100 µM |  | > 100 µM |  | > 100 µM |  | > 100 µM |  | > 100 µM |  | > 100 µM |  | > 100 µM |  | > 100 |
| COC(=O)c1ccc2c(C(=Nc3ccc(N(C)C(=O)CN4CCN(C)CC4)cc3)c3ccccc3)c(O)[nH]c2c1 | 4.46 µM and 10.8 µM | 13.1 µM and > 56.9 µM | 2.18 µM and 3.09 µM | 5.09 µM and 21.4 µM | 1.63 µM and 1.6 µM | 3.09 µM and 3.05 µM | 2.73 µM and 5.97 µM | 9.86 µM and 20.8 µM | 1.91 µM and 2.5 µM | 4.11 µM and 6.96 µM | 0.69 µM and 1.56 µM | 12.7 µM and 15 µM | 1.36 µM and 2.32 µM | 12.2 µM and > 100 µM | 2.02 µM and 2.24 µM | 4 µM and 4.96 µM | 4.63 µM and 19.2 µM | 23.5 µM and > 100 µM | 1.73 µM and 6.75 µM |  |

— PubChem BioAssay (NCI)
